# Reference: PMC5218480 (PLoS ONE, 2017)
# Tested on: MV-4-11 cells
# Assay: Gene expression microarray analysis (Affymetrix PrimeView) and GSEA
# Assay type: cell-based, human
# Design: RFU PODN (11730768_x_at) / Fold change /veh PODN (11730768_x_at) / RFU LINC00158 (11744669_a_at) / Fold change /veh LINC00158 (11744669_a_at) / RFU DUSP10 (11751237_a_at) / Fold change /veh DUSP10 (11751237_a_at) / RFU ID3 (11757404_x_at) / Fold change /veh ID3 (11757404_x_at) / RFU PLEKHG5 (11737974_s_at) / Fold change /veh PLEKHG5 (11737974_s_at) / RFU LRRC4B (11730491_at) / Fold change /veh LRRC4B (11730491_at) / RFU GIMAP4 (11747438_a_at) / Fold change /veh GIMAP4 (11747438_a_at) / RFU KRT8 (11758183_x_at) / Fold change /veh KRT8 (11758183_x_at) / RFU CNN1 (11734310_a_at) / Fold change /veh CNN1 (11734310_a_at) / RFU VPS37D (11726825_at) / Fold change /veh VPS37D (11726825_at) / RFU C10orf10 (11716522_x_at) / Fold change /veh C10orf10 (11716522_x_at) / RFU KIR2DL2 /// KIR2DL4 /// KIR2DL5A /// KIR2DL5B /// KIR2DS1 /// KIR2DS2 /// KIR2DS3 /// KIR2DS4 /// KIR3DL3 /// KIR3DL3 /// KIR3DS1 (11738374_at) / Fold change /veh KIR2DL2 /// KIR2DL4 /// KIR2DL5A /// KIR2DL5B /// KIR2DS1 /// KIR2DS2 /// KIR2DS3 /// KIR2DS4 /// KIR3DL3 /// KIR3DL3 /// KIR3DS1 (11738374_at) / RFU C1QL1 (11718748_at) / Fold change /veh C1QL1 (11718748_at) / RFU TMPRSS4 (11747572_a_at) / Fold change /veh TMPRSS4 (11747572_a_at) / RFU HAMP (11756126_x_at) / Fold change /veh HAMP (11756126_x_at) / RFU RNFT2 (11725882_a_at) / Fold change /veh RNFT2 (11725882_a_at) / RFU NR4A2 (11747474_a_at) / Fold change /veh NR4A2 (11747474_a_at) / RFU ABCC12 (11746883_a_at) / Fold change /veh ABCC12 (11746883_a_at) / RFU TMEM136 (11760407_x_at) / Fold change /veh TMEM136 (11760407_x_at) / RFU CLDN22 /// WWC2 (11732394_at) / Fold change /veh CLDN22 /// WWC2 (11732394_at) / RFU HLA-DPB1 (11760878_x_at) / Fold change /veh HLA-DPB1 (11760878_x_at) / RFU SPINT1 (11716480_a_at) / Fold change /veh SPINT1 (11716480_a_at) / RFU GAP43 (11754022_s_at) / Fold change /veh GAP43 (11754022_s_at) / RFU A4GNT (11735810_at) / Fold change /veh A4GNT (11735810_at) / RFU PRB3 (11715151_x_at) / Fold change /veh PRB3 (11715151_x_at) / RFU TUBB4B (11761932_at) / Fold change /veh TUBB4B (11761932_at) / RFU CAPN14 (11732068_a_at) / Fold change /veh CAPN14 (11732068_a_at) / RFU TMCC2 (11721928_a_at) / Fold change /veh TMCC2 (11721928_a_at) / RFU IRGQ (11745062_a_at) / Fold change /veh IRGQ (11745062_a_at) / RFU FAM174B (11720279_a_at) / Fold change /veh FAM174B (11720279_a_at) / RFU TMPRSS4 (11748680_a_at) / Fold change /veh TMPRSS4 (11748680_a_at) / RFU FAM212B (11763350_a_at) / Fold change /veh FAM212B (11763350_a_at) / RFU PLEKHG5 (11743358_a_at) / Fold change /veh PLEKHG5 (11743358_a_at) / RFU ZSCAN30 (11745921_a_at) / Fold change /veh ZSCAN30 (11745921_a_at) / RFU CMKLR1 (11741424_a_at) / Fold change /veh CMKLR1 (11741424_a_at) / RFU LOC101060620 /// MAPK8IP1 (11723275_at) / Fold change /veh LOC101060620 /// MAPK8IP1 (11723275_at) / RFU SPTSSB (11747773_x_at) / Fold change /veh SPTSSB (11747773_x_at) / RFU PRSS12 (11739890_at) / Fold change /veh PRSS12 (11739890_at) / RFU BIN1 (11741810_x_at) / Fold change /veh BIN1 (11741810_x_at) / RFU WNT11 (11732464_a_at) / Fold change /veh WNT11 (11732464_a_at) / RFU C10orf10 (11716521_a_at) / Fold change /veh C10orf10 (11716521_a_at) / RFU C5orf56 (11738089_at) / Fold change /veh C5orf56 (11738089_at) / RFU CYB561 (11721691_x_at) / Fold change /veh CYB561 (11721691_x_at) / RFU ANKRD19P (11752326_a_at) / Fold change /veh ANKRD19P (11752326_a_at) / RFU OR2T12 /// OR2T33 /// OR2T8 (11738714_s_at) / Fold change /veh OR2T12 /// OR2T33 /// OR2T8 (11738714_s_at) / RFU VCAN (11748164_a_at) / Fold change /veh VCAN (11748164_a_at) / RFU JSRP1 (11732532_at) / Fold change /veh JSRP1 (11732532_at) / RFU KRTAP10-11 (11738290_x_at) / Fold change /veh KRTAP10-11 (11738290_x_at) / RFU MYO3A (11730013_a_at) / Fold change /veh MYO3A (11730013_a_at) / RFU EBF3 (11725865_a_at) / Fold change /veh EBF3 (11725865_a_at) / RFU CAMK2N1 (11719241_x_at) / Fold change /veh CAMK2N1 (11719241_x_at) / RFU C5orf56 (11738088_a_at) / Fold change /veh C5orf56 (11738088_a_at) / RFU OLFML3 (11715873_a_at) / Fold change /veh OLFML3 (11715873_a_at) / RFU LOC100653217 /// NTM (11731650_a_at) / Fold change /veh LOC100653217 /// NTM (11731650_a_at) / RFU MAPK11 (11762145_a_at) / Fold change /veh MAPK11 (11762145_a_at) / RFU FIZ1 (11724087_x_at) / Fold change /veh FIZ1 (11724087_x_at) / RFU OASL (11726364_x_at) / Fold change /veh OASL (11726364_x_at) / RFU SOX15 (11748057_x_at) / Fold change /veh SOX15 (11748057_x_at) / RFU CD79A (11719716_a_at) / Fold change /veh CD79A (11719716_a_at) / RFU HIST1H1D (11736915_at) / Fold change /veh HIST1H1D (11736915_at) / RFU CASKIN2 (11723855_a_at) / Fold change /veh CASKIN2 (11723855_a_at) / RFU LOC730098 (11760151_x_at) / Fold change /veh LOC730098 (11760151_x_at) / RFU OR4N2 (11742367_at) / Fold change /veh OR4N2 (11742367_at) / RFU PRRT2 (11749266_a_at) / Fold change /veh PRRT2 (11749266_a_at) / RFU SNX32 (11753110_a_at) / Fold change /veh SNX32 (11753110_a_at) / RFU CDHR5 (11726645_a_at) / Fold change /veh CDHR5 (11726645_a_at) / RFU RCAN1 (11760418_a_at) / Fold change /veh RCAN1 (11760418_a_at) / RFU FAM167A (11723789_a_at) / Fold change /veh FAM167A (11723789_a_at) / RFU FAM26E (11764081_at) / Fold change /veh FAM26E (11764081_at) / RFU ISYNA1 (11749810_s_at) / Fold change /veh ISYNA1 (11749810_s_at) / RFU ACY1 (11761880_at) / Fold change /veh ACY1 (11761880_at) / RFU 11764098_at / Fold change /veh 11764098_at / RFU SAMD14 (11745864_x_at) / Fold change /veh SAMD14 (11745864_x_at) / RFU NPB (11741838_a_at) / Fold change /veh NPB (11741838_a_at) / RFU TMPRSS6 (11731388_a_at) / Fold change /veh TMPRSS6 (11731388_a_at) / RFU KRTAP10-2 (11738614_at) / Fold change /veh KRTAP10-2 (11738614_at) / RFU ARHGAP8 /// PRR5-ARHGAP8 (11727945_x_at) / Fold change /veh ARHGAP8 /// PRR5-ARHGAP8 (11727945_x_at) / RFU KRTAP5-7 /// NADSYN1 (11734609_at) / Fold change /veh KRTAP5-7 /// NADSYN1 (11734609_at) / RFU RASL12 (11751679_a_at) / Fold change /veh RASL12 (11751679_a_at) / RFU CDKN2B (11736163_a_at) / Fold change /veh CDKN2B (11736163_a_at) / RFU PRF1 (11729649_at) / Fold change /veh PRF1 (11729649_at) / RFU, ZNF638 /// ZNF638-IT1 / Fold change vs veh, ZNF638 /// ZNF638-IT1 / RFU, PANK3 / Fold change vs veh, PANK3 / RFU, SH3YL1 / Fold change vs veh, SH3YL1 / RFU, ZEB2 / Fold change vs veh, ZEB2 / RFU, NRIP1 / Fold change vs veh, NRIP1 / RFU, PTTG1IP / Fold change vs veh, PTTG1IP / RFU, CAPN2 / Fold change vs veh, CAPN2 / RFU, MED14 / Fold change vs veh, MED14 / RFU, SNORA58 / Fold change vs veh, SNORA58 / RFU, C1orf63 / Fold change vs veh, C1orf63 / RFU, LRRFIP1 / Fold change vs veh, LRRFIP1 / RFU, NDUFAF7 / Fold change vs veh, NDUFAF7 / RFU, SLC12A2 / Fold change vs veh, SLC12A2 / RFU, IBTK / Fold change vs veh, IBTK / RFU, ESF1 / Fold change vs veh, ESF1 / Fold change vs veh, TMEM50B / RFU, TAOK1 / Fold change vs veh, TAOK1 / RFU, ACBD3 / Fold change vs veh, ACBD3 / RFU, TMA16 / Fold change vs veh, TMA16 / RFU, RWDD3 / Fold change vs veh, RWDD3 / RFU, BCAT1 / Fold change vs veh, BCAT1 / RFU, EDEM3 / Fold change vs veh, EDEM3 / RFU, TMEM33 / Fold change vs veh, TMEM33 / RFU, WDR75 / Fold change vs veh, WDR75 / RFU, AHCTF1 / Fold change vs veh, AHCTF1 / RFU, TFRC / Fold change vs veh, TFRC / RFU, ZDHHC17 / Fold change vs veh, ZDHHC17 / RFU, NOM1 / Fold change vs veh, NOM1 / RFU, ARL8B / Fold change vs veh, ARL8B / RFU, ZBTB11 / Fold change vs veh, ZBTB11 / RFU, TAMM41 / Fold change vs veh, TAMM41 / RFU, KIAA1704 /// LOC100996395 / Fold change vs veh, KIAA1704 /// LOC100996395 / RFU, ING1 / Fold change vs veh, ING1 / RFU, TRMT61B / Fold change vs veh, TRMT61B / RFU, FUBP3 / Fold change vs veh, FUBP3 / RFU, TP53 / Fold change vs veh, TP53 / RFU, TNKS2 / Fold change vs veh, TNKS2 / RFU, ZFP14 / Fold change vs veh, ZFP14 / RFU, ACTR2 / Fold change vs veh, ACTR2 / RFU, PPP3R1 / Fold change vs veh, PPP3R1 / RFU, PIK3R1 / Fold change vs veh, PIK3R1 / RFU, HNRNPA1 / Fold change vs veh, HNRNPA1 / RFU, RNF170 / Fold change vs veh, RNF170 / RFU, ZNF28 / Fold change vs veh, ZNF28 / RFU, RNGTT / Fold change vs veh, RNGTT / RFU, OGT / Fold change vs veh, OGT / RFU, BRD1 / Fold change vs veh, BRD1 / RFU, MARS / Fold change vs veh, MARS / RFU, ZNF655 / Fold change vs veh, ZNF655 / RFU, FAHD1 / Fold change vs veh, FAHD1 / RFU, BDP1 / Fold change vs veh, BDP1 / RFU, LRRCC1 / Fold change vs veh, LRRCC1 / RFU, ARID1A / Fold change vs veh, ARID1A / RFU, ZNF146 / Fold change vs veh, ZNF146 / RFU, ZNF330 / Fold change vs veh, ZNF330 / RFU, GPN3 / Fold change vs veh, GPN3 / RFU, C9orf123 / Fold change vs veh, C9orf123 / RFU, N4BP2L2 / Fold change vs veh, N4BP2L2 / RFU, ARFIP1 / Fold change vs veh, ARFIP1 / RFU, FAM179B / Fold change vs veh, FAM179B / RFU, BCL10 / Fold change vs veh, BCL10 / RFU, UHRF1BP1L / Fold change vs veh, UHRF1BP1L / RFU, BET1 / Fold change vs veh, BET1 / RFU, CNOT2 / Fold change vs veh, CNOT2 / RFU, ZNF268 / Fold change vs veh, ZNF268 / Fold change vs veh, ZNF507 / RFU, DGCR2 / Fold change vs veh, DGCR2 / RFU, WDSUB1 / Fold change vs veh, WDSUB1 / Fold change vs veh, HSP90B1 /// MIR3652 / RFU, ADSS / Fold change vs veh, ADSS / RFU, GK / Fold change vs veh, GK / RFU, ZNF148 / Fold change vs veh, ZNF148 / RFU, TAF9 / Fold change vs veh, TAF9 / RFU, SLC1A5 / Fold change vs veh, SLC1A5 / RFU, SLMO2 / Fold change vs veh, SLMO2 / RFU, ABCC4 / Fold change vs veh, ABCC4 / RFU, LOC101060439 /// RAP1B / Fold change vs veh, LOC101060439 /// RAP1B / RFU, RFX7 / Fold change vs veh, RFX7 / RFU, GTPBP10 / Fold change vs veh, GTPBP10 / RFU, CNEP1R1 / Fold change vs veh, CNEP1R1 / RFU, BIVM-ERCC5 /// ERCC5 / Fold change vs veh, BIVM-ERCC5 /// ERCC5 / RFU, ILF3 / Fold change vs veh, ILF3 / RFU 11762660_at / Fold change /veh 11762660_at / RFU VCAN (11757783_s_at) / Fold change /veh VCAN (11757783_s_at) / RFU DDX43 (11728927_at) / Fold change /veh DDX43 (11728927_at) / RFU KRT8 (11758188_x_at) / Fold change /veh KRT8 (11758188_x_at) / RFU NKD1 (11759106_at) / Fold change /veh NKD1 (11759106_at) / RFU SRD5A1 (11742802_a_at) / Fold change /veh SRD5A1 (11742802_a_at) / RFU TPSAB1 /// TPSB2 (11721975_s_at) / Fold change /veh TPSAB1 /// TPSB2 (11721975_s_at) / RFU GSTM3 (11746129_a_at) / Fold change /veh GSTM3 (11746129_a_at) / RFU IL23R (11737362_x_at) / Fold change /veh IL23R (11737362_x_at) / RFU TMEM51 (11727254_a_at) / Fold change /veh TMEM51 (11727254_a_at) / RFU PIWIL2 (11732686_x_at) / Fold change /veh PIWIL2 (11732686_x_at) / RFU ORM1 (11744905_x_at) / Fold change /veh ORM1 (11744905_x_at) / RFU CCDC152 (11743942_at) / Fold change /veh CCDC152 (11743942_at) / RFU ECM1 (11717891_a_at) / Fold change /veh ECM1 (11717891_a_at) / RFU IL23R (11748794_a_at) / Fold change /veh IL23R (11748794_a_at) / RFU TNFAIP8L3 (11732012_x_at) / Fold change /veh TNFAIP8L3 (11732012_x_at) / RFU MBOAT4 (11741988_at) / Fold change /veh MBOAT4 (11741988_at) / RFU 11764193_at / Fold change /veh 11764193_at / RFU TMEM53 (11763286_at) / Fold change /veh TMEM53 (11763286_at) / RFU MAGEB2 (11727129_at) / Fold change /veh MAGEB2 (11727129_at) / RFU TMEM200A (11744735_a_at) / Fold change /veh TMEM200A (11744735_a_at) / RFU CCDC152 (11751479_a_at) / Fold change /veh CCDC152 (11751479_a_at) / RFU FAM211A (11726209_a_at) / Fold change /veh FAM211A (11726209_a_at) / RFU RGS16 (11746705_a_at) / Fold change /veh RGS16 (11746705_a_at) / RFU VCAN (11755009_s_at) / Fold change /veh VCAN (11755009_s_at) / RFU RHOB (11743442_s_at) / Fold change /veh RHOB (11743442_s_at) / RFU RGS16 (11720943_a_at) / Fold change /veh RGS16 (11720943_a_at) / RFU RGS16 (11720944_at) / Fold change /veh RGS16 (11720944_at) / RFU, VPS4B / Fold change vs veh, VPS4B / RFU, CREB1 / Fold change vs veh, CREB1 / RFU, DNAJC13 / Fold change vs veh, DNAJC13 / RFU, GNAQ / Fold change vs veh, GNAQ / RFU, CDK5R1 / Fold change vs veh, CDK5R1 / RFU, ZRANB3 / Fold change vs veh, ZRANB3 / RFU, CUL4A / Fold change vs veh, CUL4A / RFU, CCNY / Fold change vs veh, CCNY / RFU, UFL1 / Fold change vs veh, UFL1 / RFU, COG3 / Fold change vs veh, COG3 / RFU, DIAPH2 / Fold change vs veh, DIAPH2 / RFU, SKA2 / Fold change vs veh, SKA2 / RFU, AFF3 / Fold change vs veh, AFF3 / RFU, LMF1 / Fold change vs veh, LMF1 / RFU, IPO11 / Fold change vs veh, IPO11 / RFU, DFFB / Fold change vs veh, DFFB / RFU, FOXP1 / Fold change vs veh, FOXP1 / RFU, CARD8 / Fold change vs veh, CARD8 / RFU, STRN3 / Fold change vs veh, STRN3 / RFU, ADK / Fold change vs veh, ADK / RFU, RASSF2 / Fold change vs veh, RASSF2 / RFU, WIPF1 / Fold change vs veh, WIPF1 / RFU, LARP1B / Fold change vs veh, LARP1B / RFU, RASA1 / Fold change vs veh, RASA1 / RFU, RB1 / Fold change vs veh, RB1 / RFU, PPFIA1 / Fold change vs veh, PPFIA1 / RFU, MAT2A / Fold change vs veh, MAT2A / RFU, CCT5 / Fold change vs veh, CCT5 / RFU, WDR92 / Fold change vs veh, WDR92 / RFU, CUX1 / Fold change vs veh, CUX1 / RFU, TTC7A / Fold change vs veh, TTC7A / RFU, TMEM135 / Fold change vs veh, TMEM135 / RFU, DEPTOR / Fold change vs veh, DEPTOR / RFU, CPM / Fold change vs veh, CPM / RFU, DNAJB6 / Fold change vs veh, DNAJB6 / RFU, CACNA2D3 / Fold change vs veh, CACNA2D3 / RFU, DTX4 / Fold change vs veh, DTX4 / RFU, TFCP2 / Fold change vs veh, TFCP2 / RFU, GMCL1 /// GMCL1P1 / Fold change vs veh, GMCL1 /// GMCL1P1 / RFU, AEBP2 / Fold change vs veh, AEBP2 / RFU, SNHG1 /// SNORD22 /// SNORD25 /// SNORD26 /// SNORD27 /// SNORD28 /// SNORD29 /// SNORD31 / Fold change vs veh, SNHG1 /// SNORD22 /// SNORD25 /// SNORD26 /// SNORD27 /// SNORD28 /// SNORD29 /// SNORD31 / Fold change (Aza/veh), C12orf56 (ProbeSet 11735607_a_at) / Fold change (ACY-1035/veh), C12orf56 (ProbeSet 11735607_a_at) / Fold change (Aza/veh), FGFR1OP (ProbeSet 11751329_s_at) / Fold change (ACY-1035/veh), FGFR1OP (ProbeSet 11751329_s_at) / Fold change (Aza/veh), VPS36 (ProbeSet 11739960_a_at) / Fold change (ACY-1035/veh), VPS36 (ProbeSet 11739960_a_at) / RFU SYPL1 (11715823_x_at) / Fold change /veh SYPL1 (11715823_x_at) / RFU IGFBP7 (11715501_s_at) / Fold change /veh IGFBP7 (11715501_s_at) / RFU REEP3 (11722064_at) / Fold change /veh REEP3 (11722064_at) / RFU IGLL1 (11728026_x_at) / Fold change /veh IGLL1 (11728026_x_at): dose or concentration left out as unconfirmed
# Conditions: ProbeSet 11726703_a_at; LIST B
compound,measurement,value
Nc1ncn([C@@H]2O[C@H](CO)[C@@H](O)[C@H]2O)c(=O)n1 [azacitidine],"RFU, BCL10",71.45 RFU
